This is an account of results in US12697352B2, “Instructions for composition and sensitivity” (Azura Ophthalmics Ltd., priority 2020, dated 2026).

For data set [1], the system named is seborrheic blepharitis. The conditions noted are these: cited from earlier work.
The test system of data set [2] is meibomian gland disorder (MGD) patients. The conditions noted are these: twice a week, 3 month time point. The procedure: The drug was applied twice a week and final evaluation was done at the 3 month time point in which the primary outcome of Meibomian Gland Score (MGS) was assessed.
For data set [3], the system named is human subject. Here is the method: In most instances, the treatment is applied on a biweekly basis, however some patients move to daily application based on prespecified protocol criteria. Because the ointment-based composition is known to mix with tear fluid and cause blurry vision, individuals in this study are advised to apply the treatment prior to bed so as to avoid risks associated with reduced vision acuity. […] The in-office applications are conducted at specific, pre-determined time points. In these instances, the treatment is not applied before bed but rather is performed during daylight hours.

For data set [4], the system named is patients. The source says:
In a clinical study three different concentrations were used; 0.1 wt. %, (10 subjects) 0.5 wt. % (12 subjects) and 1 wt. % (26 subjects).

Data set [5] concerns patients. The conditions noted are these: in vivo. The procedure:
In a first study patients were instructed to dose in both the evening, between visits, and in the daytime during regular scheduled clinic visits as part of the study protocol. Study patients received a 2-week run-in on a placebo which was administered twice weekly for a period of two weeks.
Adverse events comprise a feeling of grittiness, foreign body feeling, stinging, blurry vision, redness, tired eyes, water eyes, irritation, lid abnormalities, burning, corneal abrasion, photophobia, staining, or dry eye disorder (DED).

For data set [6] the following is noted: in vivo; cited from earlier work.
Data set [7] relates to rabbits. The following applies: dose about 4 mg SeS2, concentration up to 2.5 wt. %, ointment applied over the eyelid margin.

Where two headings read alike, the source gives them in different places.

With selenium disulfide [SeS2], the “efficacy in treating seborrheic blepharitis” value in data set [1] (SeS2 0.5%, conclusion of most investigators) is “effective”. In addition, in data set [1] (in vivo), the “adverse events following topical ocular use” value is “superficial punctate keratitis and conjunctivitis”; the “safe concentration of ophthalmic preparation for use in humans” value is listed as 0.5%. Besides, in data set [2] (9 patients applying with finger), the “average change from baseline in Meibomian Gland Score (MGS)” value is recorded as 10 (+/−8.2). Further, the “average change from baseline in Meibomian Gland Score (MGS)” value in data set [2] (13 patients using the applicator (swab)) is 2.3 (+/−4.4). In addition, in data set [3] (at least one patient, 1 wt. %, one month of treatment), the “health outcomes by OSDI, VAS and SPEED” value is listed as “improved health outcomes”. In addition, in data set [3] (in vivo), the keratitis entry is recorded as “Keratitis is not observed” and the “patients noting symptoms of keratitis” value was “four”. Moreover, in data set [4] (human, in vivo), the development of keratitis entry is given as “no development of keratitis”, the “occurrence of keratitis with bedtime applications” value is “without a single occurrence of keratitis” and the “subjects who developed keratitis or keratitis related symptoms” value is listed as “four”. Besides, in data set [4] (one patient, 1 wt. %, first month, twice weekly at home before bedtime), the “total OSDI, VAS and SPEED” value is on record as “significant improvement”. Besides, in data set [5], the “reduction in the incidence of ocular adverse events” value came to 75% and the “reduction of rate of ocular adverse events (ocular AE)” value is given as “at least 50%”. Further, in data set [6], the “adverse effect of shampooing” value is “diffuse hair loss”, the “contact dermatitis or photo-contact dermatitis in tinea versicolor treatment” value is “None of the investigators encountered a single case”, the skin irritant effect result is “can produce contact dermatitis” and the “skin reaction after shampoo application” value is listed as “circumscribed eczematous plaques on the light-exposed areas”. For the same substance, the “time to resolution of hair loss after discontinuance” value in data set [6] is on record as 1-2 weeks. For the same substance, the tolerability entry in data set [7] was “well tolerated”.
